Our source for the Ki values is BindingDB's records for doi:10.1016/0960-894X(96)00376-9 (1996).

Molecules are shown by their SMILES.

The nature of the test: Binding affinity against human Alpha-1b adrenergic receptor.
With `O=C(c1nc(-c2c[nH]c3ccccc23)c[nH]1)c1c[nH]c2cc(O)ccc12`, the affinity, expressed as Ki, was 1150 nM. Consider `Brc1ccc2c(-c3c[nH]c(-c4c[nH]c5cc(Br)ccc45)n3)c[nH]c2c1` [Nortopsentin A], for which the affinity, expressed as Ki, was 520 nM. Against the preceding molecule, the Ki is about 2.2-fold lower. The result for `Brc1ccc2c(-c3nc(-c4c[nH]c5ccccc45)c[nH]3)c[nH]c2c1` [Nortopsentin B] reads 130 nM; that for `Brc1ccc2c(-c3c[nH]c(-c4c[nH]c5ccccc45)n3)c[nH]c2c1` [Nortopsentin C], 170 nM. Then `O=C(c1nc(-c2c[nH]c3cc(Br)ccc23)c[nH]1)c1c[nH]c2cc(O)ccc12` [topsentin B2], with 740 nM.
